From PMC7179445, “Anticancer Activities of Newly Synthesized Chiral Macrocyclic Heptapeptide Candidates” (Molecules, 2020) come the findings set out here.

The subject of data set [1] is MCF-7 cells. Format: cell-based, human. Particulars: for IC50: 72 h. As for the experimental part: (§1) The cytotoxic effects of the prepared compounds on MCF-7 and HepG2 cells were investigated with the help of standard MTT assay. […] Plates were then further incubated for 72 h. Afterwards, 20 μL of MTT (5 mg/mL in PBS) were pipetted to the wells and incubated for another 4 h. The medium was then aspirated and 100 μL DMSO were added/well. Absorbance was read using a microplate reader at 570 nm. IC50 values, used to compare compound toxicity with control cells, were obtained from linear regression of the dose–response curve using Origin® 6.1 software (OriginLab Corporation, Northampton, MA, USA). […] Data were represented as mean ± SD.

Data set [2] concerns HepG2 cells. Format: cell-based, human. As for the experimental part: as §1

Molecules are shown by their SMILES. Where two headings read alike, the source gives them in different places. A value given as a limit tells only on which side of the number the result lay.

On to `CC[C@H](C)[C@H](NC(=O)c1cccc(C(=O)N[C@H](C(=O)N[C@@H](Cc2ccccc2)C(=O)N[C@H](C(=O)OC)[C@@H](C)CC)[C@@H](C)CC)n1)C(=O)N[C@@H](Cc1ccccc1)C(=O)N[C@H](C(=O)OC)[C@@H](C)CC` [2b, N^α-Dipicolinoyl-bis[L-ILe-L-L-Phe-ILe-methyl ester]], for which the IC50 in data set [1] was found to be 20.7 ± 0.974 µM; in data set [2] (72 h) it was 18.7 ± 0.988 µM. On the same counts, the results for `CC[C@H](C)[C@@H]1NC(=O)c2cccc(n2)C(=O)N[C@@H]([C@@H](C)CC)C(=O)N[C@@H]([C@@H](C)CC)C(=O)N[C@@H](Cc2ccccc2)C(=O)N[C@H](C(=O)OC)CCCCNC(=O)[C@H](Cc2ccccc2)NC(=O)[C@H]([C@@H](C)CC)NC1=O` [4a, Cyclo-(N^α-dipicolinoyl)-bis-[(L-ILe-L-ILe-L-Phe)-L-Lysmethyl ester]] are 9.3 ± 0.536 µM and 7.31 ± 0.595 µM. Consider `CC[C@H](C)[C@H](NC(=O)[C@H](Cc1ccccc1)NC(=O)c1cccc(C(=O)N[C@@H](Cc2ccccc2)C(=O)N[C@H](C(=O)O)[C@@H](C)CC)n1)C(=O)O` [1c], for which the IC50 in data set [1] amounted to 34.9 ± 1.27 µM; in data set [2] (72 h), 17 ± 0.965 µM. `CC[C@H](C)[C@@H]1NC(=O)c2cccc(n2)C(=O)N[C@@H]([C@@H](C)CC)C(=O)N[C@@H](Cc2ccccc2)C(=O)N[C@@H]([C@@H](C)CC)C(=O)N[C@H](C(=O)O)CCCCNC(=O)[C@H]([C@@H](C)CC)NC(=O)[C@H](Cc2ccccc2)NC1=O` [5b, Cyclo-(N^α-dipicolinoyl)-bis-[(L-ILe-L-Phe-L-Ile)-L-Lyscarboxylic acid]] returned an IC50 in data set [2] (72 h) of 7.09 ± 0.784 µM.

As for `CC[C@H](C)[C@@H]1NC(=O)[C@H](Cc2ccccc2)NC(=O)c2cccc(n2)C(=O)N[C@@H](Cc2ccccc2)C(=O)N[C@@H]([C@@H](C)CC)C(=O)N[C@@H]([C@@H](C)CC)C(=O)N[C@H](C(=O)O)CCCCNC(=O)[C@H]([C@@H](C)CC)NC1=O` [5c, Cyclo-(N^α-dipicolinoyl)-bis-[(L-Phe-L-ILe-L-Ile)-L-Lyscarboxylic acid]], in data set [1], the “cytotoxic activity against MCF-7 cells (in words)” value is “did not show any activity”. Moreover, the “cytotoxic activity against HepG2 cells (in words)” value in data set [2] is recorded as “only active against HepG2 cells”. Further, the IC50 in data set [2] (72 h) stood at 9.57 ± 1.14 µM. Take `CC[C@H](C)[C@H](NC(=O)c1cccc(C(=O)N[C@H](C(=O)N[C@@H](Cc2ccccc2)C(=O)O)[C@@H](C)CC)n1)C(=O)N[C@@H](Cc1ccccc1)C(=O)O` [1b]: the results for the IC50 in data set [1] and in data set [2] (72 h) were 10.9 ± 0.534 µM and 8.72 ± 0.474 µM, respectively.

As for `CC[C@H](C)[C@H](NC(=O)c1cccc(C(=O)N[C@H](C(=O)N[C@H](C(=O)N[C@@H](Cc2ccccc2)C(=O)OC)[C@@H](C)CC)[C@@H](C)CC)n1)C(=O)N[C@H](C(=O)N[C@@H](Cc1ccccc1)C(=O)OC)[C@@H](C)CC` [2a, N^α-Dipicolinoyl-bis[L-ILe-L-ILe-L-Phe-methyl ester]], the IC50 in data set [1] is above 100 µM; in data set [2] (72 h), 17.5 ± 0.876 µM. Taken in the same sequence, the figures for `CC[C@H](C)[C@H](NC(=O)[C@@H](NC(=O)[C@H](Cc1ccccc1)NC(=O)c1cccc(C(=O)N[C@@H](Cc2ccccc2)C(=O)N[C@H](C(=O)N[C@H](C(=O)O)[C@@H](C)CC)[C@@H](C)CC)n1)[C@@H](C)CC)C(=O)O` [3c, N^α-Dipicolinoyl-bis[L-Phe-L-ILe-L-ILe-carboxylic acid]] were 22.9 ± 0.992 µM and 17 ± 1.16 µM. In data set [2] (72 h), `CC[C@H](C)[C@@H]1NC(=O)c2cccc(n2)C(=O)N[C@@H]([C@@H](C)CC)C(=O)N[C@@H]([C@@H](C)CC)C(=O)N[C@@H](Cc2ccccc2)C(=O)N[C@H](C(=O)O)CCCCNC(=O)[C@H](Cc2ccccc2)NC(=O)[C@H]([C@@H](C)CC)NC1=O` [5a, Cyclo-(N^α-dipicolinoyl)-bis-[(L-ILe-L-Ile-L-Phe)-L-Lyscarboxylic acid]] returned an IC50 of 7.12 ± 0.79 µM. Regarding `CC[C@H](C)[C@@H]1NC(=O)c2cccc(n2)C(=O)N[C@@H]([C@@H](C)CC)C(=O)N[C@@H](Cc2ccccc2)C(=O)N[C@@H]([C@@H](C)CC)C(=O)N[C@H](C(=O)OC)CCCCNC(=O)[C@H]([C@@H](C)CC)NC(=O)[C@H](Cc2ccccc2)NC1=O` [4b, Cyclo-(N^α-dipicolinoyl)-bis-[(L-ILe-L-Phe-L-Ile)-L-Lysmethyl ester]], the IC50 in data set [1] is 9.19 ± 0.545 µM; in data set [2] (72 h), 7.17 ± 0.892 µM. In the case of `CC[C@H](C)[C@H](NC(=O)[C@H](Cc1ccccc1)NC(=O)[C@@H](NC(=O)c1cccc(C(=O)N[C@H](C(=O)N[C@@H](Cc2ccccc2)C(=O)N[C@H](C(=O)O)[C@@H](C)CC)[C@@H](C)CC)n1)[C@@H](C)CC)C(=O)O` [3b, N^α-Dipicolinoyl-bis[L-ILe-L-Phe-L-ILe-carboxylic acid]], the IC50 in data set [1] was found to be 9.91 ± 0.491 µM; in data set [2] (72 h) it was 9.66 ± 0.792 µM.

On to `CC[C@H](C)[C@H](NC(=O)[C@@H](NC(=O)c1cccc(C(=O)N[C@H](C(=O)N[C@H](C(=O)O)[C@@H](C)CC)[C@@H](C)CC)n1)[C@@H](C)CC)C(=O)O` [1a], for which the IC50 was 15.3 ± 0.672 µM in data set [1] and 6.62 ± 0.353 µM in data set [2] (72 h). With `CC[C@H](C)[C@H](NC(=O)[C@H](Cc1ccccc1)NC(=O)c1cccc(C(=O)N[C@@H](Cc2ccccc2)C(=O)N[C@H](C(=O)N[C@H](C(=O)OC)[C@@H](C)CC)[C@@H](C)CC)n1)C(=O)N[C@H](C(=O)OC)[C@@H](C)CC` [2c, N^α-Dipicolinoyl-bis[L-Phe-L-ILe-L-ILe-methyl ester]], the IC50 turned out to be 24.9 ± 1.08 µM in data set [1] and 19.3 ± 1.06 µM in data set [2] (72 h). Taken in the same sequence, the figures for `CC[C@H](C)[C@H](NC(=O)c1cccc(C(=O)N[C@H](C(=O)N[C@H](C(=O)N[C@@H](Cc2ccccc2)C(=O)O)[C@@H](C)CC)[C@@H](C)CC)n1)C(=O)N[C@H](C(=O)N[C@@H](Cc1ccccc1)C(=O)O)[C@@H](C)CC` [3a, N^α-Dipicolinoyl-bis[L-ILe-L-ILe-L-Phe-carboxylic acid]] were 10.3 ± 0.546 µM and 8.06 ± 0.863 µM. Regarding `N.N.[Cl][Pt][Cl]` [Cisplatin, reference compound], the IC50 in data set [2] (read-out: IC50 (compound concentration required to inhibit the cell viability by 50%), HepG-2, hepatocellular cancer cell line HepG2, MTT assay, RPMI 1640, 72 h incubation, absorbance 570 nm, mean ± SD, triplicates) was 10.9 ± 0.962 µM.

In the case of `CC[C@H](C)[C@@H]1NC(=O)[C@H](Cc2ccccc2)NC(=O)c2cccc(n2)C(=O)N[C@@H](Cc2ccccc2)C(=O)N[C@@H]([C@@H](C)CC)C(=O)N[C@@H]([C@@H](C)CC)C(=O)N[C@H](C(=O)OC)CCCCNC(=O)[C@H]([C@@H](C)CC)NC1=O` [4c, Cyclo-(N^α-dipicolinoyl)-bis-[(L-Phe-L-ILe-L-Ile)-L-Lysmethyl ester]], the IC50 in data set [1] turned out to be 19.6 ± 1.03 µM; in data set [2] (72 h), 9.63 ± 0.932 µM.
